Assay results published in patent publication US5064862A, “Anticonvulsant method and formulations” (priority 1990, dated 1991).
Where “and” joins values, the source holds several entries; their conditions need not be identical. Equal entries are not always repeated. Entries after “also recorded” stand apart in the source; their conditions may differ. Where two headings read alike, the source gives them in different places.

Columns and labels:
[1] = system: maximal electroshock seizures (MES); settings: cited from earlier work;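 for animals with anti-MES activity at 5 mg/kg: seizures induced by corneal electroshock, 60-cycle alternating current at 50 mA for 0.2 s, protection means no hind limb tonic extension, scored right after the shock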;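 for safety ratio (SR=TD3/ED97), MES test: seizures induced by corneal electroshock, 60-cycle alternating current at 50 mA for 0.2 s, protection means no hind limb tonic extension, scored right after the shock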
[2] = system: maximal electroshock seizures (MES);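 for animals with anti-MES activity at 5 mg/kg: seizures induced by corneal electroshock, 60-cycle alternating current at 50 mA for 0.2 s, protection means no hind limb tonic extension, scored right after the shock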;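 for safety ratio (SR=TD3/ED97), MES test: seizures induced by corneal electroshock, 60-cycle alternating current at 50 mA for 0.2 s, protection means no hind limb tonic extension, scored right after the shock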
Experimental: The preliminary screening was done at doses of the test compounds from 30 mg/kg up to 600 mg/kg adminstered ip in mice and evaluated against maximal electroshock seizures (MES) and subcutaneous Metrazole (scMet) induced convulsions and in the rotorod test for neurologic deficit.
(§1) All tests were performed using male Carworth Farms number-one mice. Test solutions of all compounds were prepared in 30% polyethylene glycol 400 and animals were dosed intraperitoneally (ip) at 30 minutes prior to testing.
Maximal electroshock seizures (MES) were elicited with a 60 cycle alternating current of 50 mA intensity delivered for 0.2 second via corneal electrodes. A drop of 0.9% saline was instilled in the eye prior to application of electrodes. The animals were examined and evaluated immediately after the electroshock for the occurrence of clonic, flexor tonic, or extensor tonic convulsions or death. Abolition of the hind limb tonic extension component of the seizure was defined as protection in the MES test. The ED50 was determined for the test compound as the dose which inhibited the occurrence of hind limb tonic convulsions in one half of the animals immediately after the electroshock as determined by graphical interpolation.
(§2) Neurological deficit was measured in mice using the rotorod test. The dosed animal was placed on a 1-inch diameter knurled plastic rod rotating at 6 rpm. Neurologic toxicity was defined as the failure of the animal to remain on the rod for 1 minute. The median anticonvulsant protency (ED50) and toxicity (TD50) were determined by the graphical method.

[3] = system: subcutaneous Metrazole (scMet) induced convulsions; settings: cited from earlier work
[4] = system: subcutaneous Metrazole (scMet) induced convulsions; experiment: Subcutaneous pentylenetetrazole (Metrazol) seizure threshold test (scMet) in mice, ip
Experimental: Protection in this test was defined as a failure to observe a single episode of clonic spasms of at least 5 second duration during a 30 minute period following adminstration of the test compound.

[5] = system: neurologic deficit (rotorod); settings: mouse, in vivo
Experimental: as §1, §2

[6] = system: convulsions induced by sc strychnine; experiment: sc strychnine induced seizures in mice; type: in vivo; settings: doses up to 30 mg/kg
[7] = system: convulsions induced by sc bicuculline; experiment: sc bicuculline induced seizures in mice; type: in vivo; settings: doses up to 30 mg/kg
[8] = system: convulsions induced by sc picrotoxin; experiment: sc picrotoxin induced seizures in mice; type: in vivo; settings: doses up to 30 mg/kg
[9] = in vivo; settings: mouse, ip
Experimental: as §1

[10] = system: neurologic deficit (rotorod); experiment: Rotorod test for neurologic deficit in mice, ip
Experimental: as §1, §2

[11] = Mus musculus, ip, 0.5 h, read-out: scMet activity, 30 min
[12] = Mus musculus, ip, 4 h, read-out: scMet activity, 4 hrs
[13] = previous studies by Clark et al.

CC(NC(=O)c1ccc(N)cc1)c1ccccc1 (stereo not drawn) [Compound 14]
MES ED50 ([1]; Clark et al, ip, mice): 18.02 mg/kg | MES PI (TD50/ED50) ([1]; Clark et al, ip, mice): 9.50 | safety ratio (SR=TD3/ED97), MES test ([2]; mouse, in vivo, ip): 3.5 | lethal dose (LD50) (ip, mice): 718.18 mg/kg | scMET ED50 ([3]; Clark et al, ip, mice): 41.78 mg/kg | scMET PI (TD50/ED50) ([3]; Clark et al, ip, mice): 4.10

Cc1cccc(C)c1NC(=O)c1ccc(N)cc1 [Example 1, 4-Amino-N-(2,6-dimethylphenyl) benzamide]
anti-scMet activity (in words), 30 min ([4]; 30 minutes, ip, mice): No anti-scMet activity | anti-scMet activity (in words), 4 hours ([4]; 4 hours, ip, mice): No anti-scMet activity | minimal effective dose [4, 11]: > 300 mg/kg | minimal effective dose [4, 12]: > 300 mg/kg | effect against convulsions induced by sc metrazole ([4]; doses up to 30 mg/kg, mice): ineffective | anti-scMet activity (in words) ([4]; ip, mice): absent | animals with rotorod toxicity at 20 mg/kg [5]: 3 of 4 | animals with rotorod toxicity at 30 mg/kg [5]: all aminals | increase in toxicity over compound 14 [5]: ~10 fold | time of peak effect for toxicity [5]: 30 min | rotorod toxicity, dose, 30 min ([5]; ip, 30 min): 30 mg/kg | rotorod toxicity, dose, 4 hours ([5]; ip, 240 min): 100 mg/kg | animals with anti-MES activity at 5 mg/kg ([2]; 5 mg/kg, 30 minutes, ip): 4 of 4 | animals with anti-MES activity at 30 mg/kg ([2]; ip, mice): all aminals | anti-MES activity, active dose, 4 hours ([2]; 4 hours after ip administration, mice): 30 mg/kg | MES ED50 ([2]; ip, mice): 2.60 mg/kg and 2.6 mg/kg | anti-MES / anticonvulsant activity (in words) ([2]; ip, mice): good anti-MES activity; also recorded: most potent amide of PABA observed thus far; also recorded: greater potency than any of the prototype anticonvulsant | increase in anti-MES activity over compound 14 ([2]; mice): ~10 fold | time of peak effect for anti-MES activity ([2]; mice): 30 min | PI values (in words) ([2]; mouse, in vivo, ip): higher PI values | effect against convulsions induced by sc strychnine [6]: ineffective | effect against convulsions induced by sc bicuculline [7]: ineffective | effect against convulsions induced by sc picrotoxin [8]: ineffective | additional toxicity at higher doses (2×TD50 and 4×TD50, ip, mice): muscle relaxation, loss of righting reflex, decreased respiration with cyanosis and ptosis | toxicity induced by the TD50 dose (TD50 dose, ip, mice): decreased motor activity, spasticity, ataxia, rotorod toxicity and sedation | time after which all symptoms had disappeared (mouse, in vivo, ip): ≤ 2 h | LD50 [9]: 161 mg/kg | TD50 [9]: 43.8 mg/kg | toxicity (in words) [10]: most toxic

Nc1ccc(C(=O)Nc2ccccc2)cc1 [Example 2]
minimal effective dose [4, 11]: 100 mg/kg | minimal effective dose [4, 12]: > 600 mg/kg | scMET PI (protective index = TD50/ED50) ([4]; ip, mice): 1.88 | activity against MES induced convulsions (dose range) [1, 13]: ~50 mg/kg | MES PI (protective index = TD50/ED50) ([2]; mouse, in vivo, ip): 2.20 | activity against scMet induced convulsions (dose range) [3, 13]: ~50 mg/kg

Cc1ccccc1NC(=O)c1ccc(N)cc1 [Example 3, 4-amino-N-(2-methylphenyl) benzamide]
minimal effective dose [4, 11]: > 300 mg/kg | minimal effective dose [4, 12]: > 300 mg/kg | LD50 [9]: < 600 mg/kg

Cc1cccc(NC(=O)c2ccc(N)cc2)c1 [Example 4]
minimal effective dose [4, 11]: 300 mg/kg | minimal effective dose [4, 12]: > 600 mg/kg | ED50 ([4]; Mus musculus, ip, read-out: scMET ED50): 87.9 mg/kg | scMET PI (protective index = TD50/ED50) ([4]; ip, mice): 1.62 | TD50 ([5]; ip): 142.51 mg/kg | MES ED50 ([2]; ip, mice): 46.96 mg/kg | difference between the dosages producing toxicity and anti-MES activity ([2]; ip, mice): appreciable difference between the dosages producing toxicity and anti-MES activity | MES PI (protective index = TD50/ED50) ([2]; mouse, in vivo, ip): 3.03

Cc1ccc(NC(=O)c2ccc(N)cc2)cc1 [Example 5, 4-amino-N-(4-methylphenyl) benzamide]
minimal effective dose [4, 11]: 30 mg/kg | minimal effective dose [4, 12]: > 600 mg/kg

Cc1cccc(NC(=O)c2ccc(N)cc2)c1C [Example 6]
minimal effective dose [4, 11]: 100 mg/kg | minimal effective dose [4, 12]: > 300 mg/kg | TD50 ([5]; ip): 103.90 mg/kg | animals with anti-MES activity at 30 mg/kg ([2]; ip, mice): approximately half the animals | MES ED50 ([2]; ip, mice): 25.25 mg/kg | PI values (in words) ([2]; ip, mice): higher PI values | anti-MES / anticonvulsant activity (in words) ([2]; ip, mice): good anti-MES activity | MES PI (protective index = TD50/ED50) ([2]; mouse, in vivo, ip): 4.11 | LD50 [9]: < 600 mg/kg

Cc1ccc(NC(=O)c2ccc(N)cc2)c(C)c1 [Example 7]
minimal effective dose [4, 11]: 600 mg/kg | minimal effective dose [4, 12]: > 600 mg/kg | anti-MES / anticonvulsant activity (in words) ([2]; ip, mice): good anti-MES activity

Cc1ccc(C)c(NC(=O)c2ccc(N)cc2)c1 [Example 8]
minimal effective dose [4, 11]: 300 mg/kg | minimal effective dose [4, 12]: > 600 mg/kg | anti-MES / anticonvulsant activity (in words) ([2]; ip, mice): good anti-MES activity
